What was measured:
[1] = Fluorescence of free probe before reaction with the protein tag; assay type: physicochemical
Method: (§1) Mix the probe with corresponding protein tag to obtain the mixed sample, wherein the final concentration of probe in the mixed sample is 5 μM, and the final concentration of protein tags is 10 μM; hatch the mixed sample at 37° C. for 1 h, and detect its fluorescence intensity change by using the fluorescence spectrophotometer.
(§2) According to the free probe quantum yield shown in Table 1, the fluorescence of the probes of and reference probes are extremely low before the reaction with the protein tag, and is close to the background fluorescence level of PBS buffer solution. […] However, according to the quantum yield of the binding protein tag, the fluorescence signal enhancement can be detected in the corresponding excitation emission channel after the probe reacts with the protein tag with hundreds to one thousand fold fluorescence activation times and very high brightness; the reference probes also can activate fluorescence, but the fluorescence quantum yield and brightness after activation are quite low.

[2] = Fluorescence emission spectra of probes in glycerol and methanol (viscosity response); assay type: physicochemical; conditions: maximum excitation wavelength of each probe; for Fluorescence ratio in glycerol methanol: 1×10^−5 M; for Emission wavelength: medium not given
Excerpt: Respectively dissolve Probe 1-32 and Reference Probes BG-CCVJ and BG-Gly-CCVJ in dimethyl sulfoxide so as to prepare a mother liquid with a concentration of 1×10^−2M; add the mother liquid to glycerol and methanol respectively and mix them well to prepare a solution with a concentration of 1×10^−5 M. Based on different probes, the fluorescence emission spectrum of each probe are detected under the same conditions with maximum excitation wavelength of each probe.
The probes are sensitive to the change of viscosity and have viscosity response.

[3] = system: CLIP protein tag; assay: Fluorescence activation after mixing probe with corresponding protein tag (CLIP); assay type: biochemical; conditions: probe 5 μM, protein tag 10 μM, 37° C., 1 h
Method: as §1, §2

[4] = system: SNAP protein tag; assay: Fluorescence activation after mixing probe with corresponding protein tag (SNAP); assay type: biochemical; conditions: probe 5 μM, protein tag 10 μM, 37° C., 1 h
Method: as §1, §2

Structure (SMILES) | Quantum yield of free probe [1] | Fluorescence ratio in glycerol methanol [2] | Emission wavelength [2] [nm] | Fluorescence activation multiple [3] | Quantum yield of binding protein tags [3] | Fluorescence activation multiple [4] | Quantum yield of binding protein tags [4]
CN(CCOC(=O)NCc1ccc(COc2nccc(N)n2)cc1)c1ccc2c(c1)C(C)(C)c1cc(/C=C(\C#N)c3nc4ccccc4s3)sc1-2 [Probe 26] | <0.001 | 522 | 675 | 478 | 0.46 |  | 
COCCNC(=O)/C(C#N)=C/c1cc2c(s1)-c1ccc(N(C)CCOC(=O)NCc3ccc(COc4nc(N)nc5[nH]cnc45)cc3)cc1C2(C)C [Probe 19] | <0.001 | 996 | 640 |  |  | 670 | 0.51
CN(CCOC(=O)NCc1ccc(COc2nccc(N)n2)cc1)c1ccc2c(c1)C(C)(C)c1cc(/C=C(\C#N)C(=O)OC(C)(C)C)sc1-2 [Probe 24] | <0.001 | 1125 | 645 | 535 | 0.55 |  | 
N#C/C(=C\c1cc2c3c(c1)CCCN3CCC2)C(=O)NCc1ccc(COc2nc(N)nc3[nH]cnc23)cc1 [Reference probe BG-CCVJ, reference compound] | <0.001 | 260 | 501 |  |  | 170 | 0.02
CN(CCOC(=O)NCc1ccc(COc2nc(N)nc3[nH]cnc23)cc1)c1ccc(-c2ccc(/C=C(\C#N)C(=O)OC(C)(C)C)o2)cc1 [Probe 5] | <0.001 | 821 | 615 |  |  | 669 | 0.44
CN(CCOC(=O)NCc1ccc(COc2nc(N)nc3[nH]cnc23)cc1)c1ccc2nc(/C=C(\C#N)c3nc4ccccc4o3)ccc2c1 [Probe 2] | <0.001 | 790 | 630 |  |  | 556 | 0.44
CN(CCOC(=O)NCc1ccc(COc2nccc(N)n2)cc1)c1ccc2nc(/C=C(\C#N)C(=O)OC(C)(C)C)ccc2c1 [Probe 3] | <0.001 | 621 | 550 | 473 | 0.41 |  | 
COCCNC(=O)/C(C#N)=C/c1ccc(-c2ccc(N(C)CCOC(=O)NCc3ccc(COc4nc(N)nc5[nH]cnc45)cc3)cc2)o1 [Probe 6] | <0.001 | 851 | 627 |  |  | 745 | 0.41
CN(CCOC(=O)NCc1ccc(COc2nc(N)nc3[nH]cnc23)cc1)c1ccc(-c2ccc(/C=C(\C#N)c3nc4ccccc4s3)o2)o1 [Probe 14] | 0.001 | 402 | 725 |  |  | 498 | 0.35
CN(CCOC(=O)NCc1ccc(COc2nccc(N)n2)cc1)c1ccc(-c2ccc(/C=C(\C#N)C(=O)OC(C)(C)C)o2)o1 [Probe 15] | 0.0012 | 301 | 651 | 265 | 0.35 |  | 
COCCNC(=S)/C(C#N)=C/c1cc2c(s1)-c1ccc(N(C)CCOC(=O)NCc3ccc(COc4nc(N)nc5[nH]cnc45)cc3)cc1C2(C)C [Probe 20] | <0.001 | 1123 | 665 |  |  | 910 | 0.44
CN(CCOC(=O)NCc1ccc(COc2nc(N)nc3[nH]cnc23)cc1)c1ccc2c(c1)C(C)(C)C(/C=C(\C#N)c1nc3ccccc3s1)=N2 [Probe 31] | <0.001 | 573 | 703 |  |  | 445 | 0.47
CN(CCOC(=O)NCc1ccc(COc2nccc(N)n2)cc1)c1ccc(-c2ccc(/C=C(\C#N)C(=O)OC(C)(C)C)o2)cc1 [Probe 8] | <0.001 | 574 | 630 | 555 | 0.40 |  | 
CN(CCOC(=O)NCc1ccc(COc2nccc(N)n2)cc1)c1ccc2c(c1)C(C)(C)c1cc(/C=C(\C#N)C(=O)OC(C)(C)C)oc1-2 [Probe 29] | <0.001 | 1024 | 652 | 933 | 0.57 |  | 
CN(CCOC(=O)NCc1ccc(COc2nc(N)nc3[nH]cnc23)cc1)c1ccc2c(c1)C(C)(C)c1cc(/C=C(\C#N)C(=O)O)sc1-2 [Probe 23] | <0.001 | 512 | 643 |  |  | 433 | 0.33
COC(=S)/C(C#N)=C/c1cc2c(s1)-c1ccc(N(C)CCOC(=O)NCc3ccc(COc4nc(N)nc5[nH]cnc45)cc3)cc1C2(C)C [Probe 21] | <0.001 | 542 | 680 |  |  | 451 | 0.39
CN(CCOC(=O)NCc1ccc(COc2nc(N)nc3[nH]cnc23)cc1)c1ccc(-c2ccc(/C=C(\C#N)C(=O)OC(C)(C)C)o2)o1 [Probe 13] | 0.0012 | 311 | 650 |  |  | 359 | 0.37
CN(CCOC(=O)NCc1ccc(COc2nc(N)nc3[nH]cnc23)cc1)c1ccc(-c2ccc(/C=C(\C#N)c3nc4ccccc4o3)o2)cc1 [Probe 7] | <0.001 | 814 | 666 |  |  | 701 | 0.45
CN(CCOC(=O)NCc1ccc(COc2nccc(N)n2)cc1)c1ccc2c(c1)C(C)(C)c1cc(/C=C(\C#N)c3nc4ccccc4o3)sc1-2 [Probe 25] | <0.001 | 782 | 670 | 421 | 0.41 |  | 
CN(CCOC(=O)NCc1ccc(COc2nccc(N)n2)cc1)c1ccc2c(c1)C(C)(C)C(/C=C(\C#N)C(=O)OC(C)(C)C)=N2 [Probe 32] | <0.001 | 553 | 675 |  |  | 421 | 0.41
CN(CCOC(=O)NCc1ccc(COc2nc(N)nc3[nH]cnc23)cc1)c1ccc2c(c1)C(C)(C)C(/C=C(\C#N)C(=O)OC(C)(C)C)=N2 [Probe 30] | <0.001 | 412 | 675 |  |  | 503 | 0.41
CN(CCOC(=O)NCc1ccc(COc2cc(Cl)nc(N)n2)cc1)c1ccc2nc(/C=C(\C#N)C(=O)OC(C)(C)C)ccc2c1 [Probe 4] | <0.001 | 601 | 550 |  |  | 567 | 0.39
CN(CCOC(=O)NCc1ccc(COc2cc(Cl)nc(N)n2)cc1)c1ccc2c(c1)C(C)(C)c1cc(/C=C(\C#N)C(=O)OC(C)(C)C)sc1-2 [Probe 27] | <0.001 | 493 | 645 |  |  | 557 | 0.41
N#C/C(=C\c1cc2c3c(c1)CCCN3CCC2)C(=O)NCC(=O)NCc1ccc(COc2nc(N)nc3[nH]cnc23)cc1 [Reference probe BG-Gly-CCVJ, reference compound] | <0.001 | 260 |  |  |  | 60 | 
CN(CCOC(=O)NCc1ccc(COc2nc(N)nc3[nH]cnc23)cc1)c1ccc2c(c1)C(C)(C)c1cc(/C=C(\C#N)C(=O)OC(C)(C)C)oc1-2 [Probe 28] | <0.001 | 1274 | 651 |  |  | 857 | 0.67
CN(CCOC(=O)NCc1ccc(COc2nc(N)nc3[nH]cnc23)cc1)c1ccc2nc(/C=C(\C#N)C(=O)OC(C)(C)C)ccc2c1 [Probe 1] | <0.001 | 562 | 550 |  |  | 490 | 0.41

Source: patent US12613246B2, “Fluorescent probe and protein labeling method” (SHANGHAI GLORY CAPITAL MANAGEMENT LTD., priority 2018, dated 2026)
